Among the test systems are BT-549; M19-MEL; DLD-1; DMS-114; DMS-273; KM-20L2; HOP-18; XF498.
Common to all, as to assay: NCI tumour cell line growth inhibition, 48 h

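Exposure lasted 48 hours, with cells grown in 96-well plates and compounds tested at five concentrations. Here, GI50 denotes the concentration required for 50% inhibition of growth.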 Active and inactive are the calls of the source. No stated cut-off is given here; in the data, active = GI50 up to about 1.1 µM and inactive = higher.

`Oc1nc2c(c(-c3ccccc3Cl)n1)COC/C2=C\c1ccccc1Cl`: the GI50 in the experiment on BT-549 is > 100 µM (inactive).

For the compound `CCOC(=O)c1cc2c(OC(C)=O)ccc(OC(C)=O)c2s1`, the GI50 with BT-549 is 2.13 µM (inactive).

Turning to `CC(C)C(=O)OCC1CCCN2CCCCC12` (stereo not given), in the experiment with BT-549, the GI50 is 21.5 µM (inactive).

Regarding `O=C1Cc2c(-c3ccccc3)cc(-c3ccc(Cl)cc3)nc2-c2ccccc2N1`, the GI50 in the experiment with BT-549 was 17.1 µM (inactive).

In the case of `COC1(OC)CCN(Cc2ccccc2)C1=O`, in the experiment on BT-549, the GI50 is 17.2 µM (inactive).

As to `COC(=O)Nc1nc2cc(Oc3ccc4nc(NC(=O)OC)[nH]c4c3)ccc2[nH]1`, in the experiment on BT-549, the GI50 is 7.01 µM (inactive).

In the case of `C#C[C@]1(O)[C@@H](CO)O[C@@H](n2ccc(N)nc2=O)[C@@H]1O`, the GI50 with BT-549 is 0.0834 µM (active).

On to `COC1CC(OS(=O)(=O)c2ccc(C)cc2)C(OS(=O)(=O)c2ccc(C)cc2)C(COS(=O)(=O)c2ccc(C)cc2)O1` (stereo not given), for which the GI50 in the experiment with M19-MEL is 7.38 µM (inactive); in the experiment on DLD-1, 8.75 µM (inactive); in the experiment with DMS-114, 2.92 µM (inactive); in the experiment with DMS-273 it was 5.32 µM (inactive); in the experiment with KM-20L2, 12.9 µM (inactive); in the experiment on HOP-18, 2.24 µM (inactive).

Take `COC(=O)[C@@H]1C=C[C@H](OC2OC(COC(C)=O)C(OC(C)=O)C(OC(C)=O)C2OC(C)=O)n2c(=O)c3ccccc3c(=O)n21` (stereo not given in full): the GI50 with BT-549 is 4.8 µM (inactive).

Turning to `O=C1Sc2ccc(Br)cc2C(=O)Sc2ccccc21`, the GI50 in the experiment with BT-549 was 12.5 µM (inactive).

With `Cc1ccc(C[P+]2(c3ccccc3)CCCCC2)cc1.[O-][Cl+3]([O-])([O-])[O-]`, the GI50 in the experiment on M19-MEL was 15.7 µM (inactive); in the experiment with DLD-1, 84.3 µM (inactive); in the experiment with XF498, < 0.01 µM (active); in the experiment with DMS-114, 14.2 µM (inactive); in the experiment with DMS-273 it was 35 µM (inactive); in the experiment on KM-20L2 it was 31.2 µM (inactive).

`COc1ccc2ccc([Se]c3ccc4ccc(OC)cc4c3)cc2c1`: the GI50 was > 100 µM (inactive) with M19-MEL; > 100 µM (inactive) with DLD-1; 43 µM (inactive) with XF498; 64 µM (inactive) in the experiment on DMS-114; > 100 µM (inactive) in the experiment with DMS-273; > 100 µM (inactive) with KM-20L2. In addition, the GI50 in the experiment on HOP-18 was 28.9 µM (inactive).

With `CN(C)c1ccc(C2CC(c3ccc4ccccc4c3O)=NN2)cc1` (stereo not given), the GI50 with BT-549 was 39.1 µM (inactive).

Consider `Cn1c(=O)oc2cc(C(O)CN3CCN(Cc4ccc5c(c4)OCO5)CC3)ccc21` (stereo not given), for which the GI50 with BT-549 is > 100 µM (inactive).

Consider `c1cc(C[S+]2CCCC2)oc1C[S+]1CCCC1`, for which the GI50 with BT-549 was > 100 µM (inactive).

For `C=C(C)C(=O)OC1C[C@H](COC(C)=O)C2CC=C(C)C2C2OC(=O)C(=C)[C@H]12` (stereo not given in full), the GI50 in the experiment with BT-549 was 4.13 µM (inactive).

`C[Si](C)(C)C1(Sc2ccccc2)SCCCS1`: the GI50 is 34 µM (inactive) in the experiment on M19-MEL; 32 µM (inactive) in the experiment on DLD-1; 28.4 µM (inactive) in the experiment with XF498; 25.8 µM (inactive) with DMS-114; 35.2 µM (inactive) in the experiment with DMS-273.

For the compound `CCCCCc1cc(OC(=O)c2c(O)cc(OC)cc2CCCCC)cc(O)c1C(=O)O`, the GI50 was 18.4 µM (inactive) with M19-MEL; 13 µM (inactive) in the experiment with DLD-1; 15.3 µM (inactive) in the experiment with XF498; 14.7 µM (inactive) in the experiment with DMS-114; 16.1 µM (inactive) in the experiment with DMS-273; 18.5 µM (inactive) with KM-20L2.

Turning to `CC(CC(C)(C)[N+](C)(C)C)[N+](C)(C)C` (stereo not given), the GI50 in the experiment on BT-549 is > 100 µM (inactive).

As for `COc1ccc(C(=O)O)c(Br)c1OCc1ccccc1`, the GI50 in the experiment with M19-MEL, with DLD-1, in the experiment with XF498, with DMS-114, in the experiment with DMS-273 and with KM-20L2 was > 100 µM (inactive) throughout.

`NC(=O)NOCC1NC(=O)NC1=O` (stereo not given): the GI50 in the experiment with BT-549 was > 100 µM (inactive).

As to `COc1cc2c(c3c1C=CCO3)C(=O)c1ccccc1C2=O`, the GI50 in the experiment on M19-MEL was 76.6 µM (inactive); in the experiment on DLD-1 it was 24.2 µM (inactive); with DMS-114, 53.1 µM (inactive); in the experiment with DMS-273 it was 49.1 µM (inactive); with KM-20L2, 59.4 µM (inactive); in the experiment with HOP-18, 83.8 µM (inactive).

Consider `CC1=CC(/C=C(\C)CCCc2ccoc2)C2(OC(=O)C(C)=C2O)[C@H]2C1CC[C@@H]2C` (stereo not given in full), for which the GI50 is 29 µM (inactive) in the experiment on M19-MEL; 25.5 µM (inactive) in the experiment on DLD-1; 22.1 µM (inactive) with DMS-114; > 10 µM (inactive) in the experiment with DMS-273; 14.2 µM (inactive) in the experiment with HOP-18.

As for `COc1ccccc1/C=C/c1c(N)ncnc1Nc1cccc(Cl)c1`, the GI50 in the experiment on BT-549 was 19.7 µM (inactive).

On to `C=C1C(=O)O[C@@H]2/C=C(\C)CC/C=C(\C)CC[C@@]12O`, for which the GI50 with BT-549 is 1.99 µM (inactive).

For `CC(=O)Oc1c2c(c(O)c3ccccc13)C(n1cnc3c(ncn3C3OC(CO)C4OC(C)(C)OC43)c1=N)CCC2` (stereo not given), the GI50 in the experiment with M19-MEL was 11.6 µM (inactive); in the experiment on DLD-1, 13.1 µM (inactive); with DMS-114 it was 6.44 µM (inactive); in the experiment on DMS-273, 18.1 µM (inactive); in the experiment on KM-20L2, 21.6 µM (inactive); in the experiment on HOP-18, 20.3 µM (inactive).

As to `COC(=O)[C@@H](O)[C@]1(C(=O)OC)C2O[C@@H](OC)[C@@H]1CCCCCC[C@H]2O`, the GI50 in the experiment on BT-549 is > 100 µM (inactive).

In the case of `COc1ccc(CNc2nc(NCc3ccc(OC)cc3)nc(NC3CCCCC3)n2)cc1`, the GI50 with BT-549 was 4.08 µM (inactive).

With `COC(=O)c1cc(OCc2cc(OCc3ccc(Br)cc3)cc(OCc3ccc(Br)cc3)c2)cc(OCc2cc(OCc3ccc(Br)cc3)cc(OCc3ccc(Br)cc3)c2)c1`, the GI50 with BT-549 was > 100 µM (inactive).

Regarding `O=C1NC2OC(CO)C(O)C(O)C2O1` (stereo not given), the GI50 with M19-MEL, in the experiment on DLD-1, with DMS-114, in the experiment on DMS-273, in the experiment on KM-20L2 and in the experiment on HOP-18 was > 100 µM (inactive) in each case.

In the case of `c1ccc(Nc2nn3c(CCCCCCCCc4nnc5sc(Nc6ccccc6)nn45)nnc3s2)cc1`, the GI50 in the experiment with BT-549 was 31.5 µM (inactive).

In the case of `O=C(O)c1cccc(OCCO)c1`, the GI50 in the experiment with BT-549 is > 100 µM (inactive).

As to `CC(C)(C)[Si](C)(C)OCC1OC(n2ccc(=O)[nH]c2=O)C(O[Si](C)(C)C(C)(C)C)[C@]12O[C@@H]2CO` (stereo not given in full), in the experiment with BT-549, the GI50 was 3.9 µM (inactive).

With `CC(C#N)c1cn(S(=O)(=O)c2ccccc2)c2ccccc12` (stereo not given), the GI50 in the experiment with M19-MEL is 42.5 µM (inactive); with DLD-1, 55.3 µM (inactive); in the experiment on XF498, > 100 µM (inactive); in the experiment on DMS-114 it was 46.5 µM (inactive); in the experiment with DMS-273, 45.6 µM (inactive); in the experiment on KM-20L2 it was 67.8 µM (inactive).

For `CS(=O)(=O)OCC1OC(n2ccc(NC(=O)c3ccccc3)nc2=O)CC1OS(C)(=O)=O` (stereo not given), the GI50 with BT-549 was > 100 µM (inactive).

As for `c1ccc2[nH]c3nc4ccccc4c-3cc2c1`, the GI50 in the experiment on BT-549 was 0.512 µM (active).

Take `COc1ccc(-n2sc3ncc(-c4ccccc4)cc3c2=O)cc1`: the GI50 in the experiment with BT-549 was 94 µM (inactive).

On to `C/C(=N\N(C)C)C(CN(C)C)C(c1ccccc1)c1c(O)c2ccccc2oc1=O` (stereo not given), for which the GI50 in the experiment with DLD-1, in the experiment on XF498, with DMS-114, in the experiment with DMS-273 and with KM-20L2 was > 100 µM (inactive) in each case.

Regarding `CCCCCCCCCCCCCCCCNc1nc(=O)n(C2CC(O)C(CO)O2)cc1F` (stereo not given), the GI50 in the experiment with BT-549 was 16.3 µM (inactive).

Regarding `CC(=O)O[C@@H]1CC2[C@@H](CCC3Cc4nc5c(nc4C[C@@]32C)CC2CC[C@@H]3C(CC[C@@]4(C)C3CC[C@@H]4C(C)CCCC(C)C)[C@@]2(C)C5)C2C[C@@H]3OC4(CCC(C)CO4)C(C)[C@@H]3[C@]21C` (stereo not given in full), the GI50 in the experiment on BT-549 is > 100 µM (inactive).

`CC(=O)NC(CS/N=N/c1[nH]cnc1C(N)=O)C(=O)O` (stereo not given): the GI50 in the experiment on BT-549 was 53 µM (inactive).

For `OCC1c2ccccc2-n2nc(-c3ccccc3)c(O)c21` (stereo not given), in the experiment with BT-549, the GI50 was 20 µM (inactive).

Regarding `CCSCN(C)c1nc(N(C)C)nc(N(C)C)n1`, the GI50 was 64 µM (inactive) in the experiment with M19-MEL; 83 µM (inactive) in the experiment on DLD-1; 25.9 µM (inactive) in the experiment with DMS-114; 38.6 µM (inactive) in the experiment with DMS-273; 55 µM (inactive) in the experiment with KM-20L2; > 100 µM (inactive) in the experiment on HOP-18.

`Cc1cc(C)nc(NS(=O)(=O)c2ccc(NNc3c4ccccc4nc4c(C(=O)Nc5ccc(S(N)(=O)=O)cc5)cccc34)cc2)n1`: the GI50 with BT-549 was 34.8 µM (inactive).

In the case of `CCCC(=O)NC(Nc1ccc(F)cc1)(C(F)(F)F)C(F)(F)F`, the GI50 in the experiment on BT-549 is 80 µM (inactive).

Consider `Cc1ccc2c(c1)C1(C)OC(CC(N)C1O)O2` (stereo not given), for which the GI50 in the experiment on M19-MEL, with DLD-1, in the experiment on DMS-114, in the experiment on DMS-273 and in the experiment on HOP-18 was > 100 µM (inactive) in each case.

`CCC(CO)Nc1nc2c(c(=O)n(C)c(=O)n2C)n1CCO` (stereo not given): the GI50 in the experiment with M19-MEL, in the experiment on DMS-273 and with KM-20L2 was > 100 µM (inactive) each time.

For the compound `C=CCC1CC(n2cc(C)c(=O)[nH]c2=O)OC1CO[Si](C)(C)C(C)(C)C` (stereo not given), in the experiment with BT-549, the GI50 was 16 µM (inactive).

For the compound `CN(C)c1ccc(C(Cc2ccccc2)C2NC(=S)NC2=O)cc1` (stereo not given), the GI50 in the experiment on BT-549 was > 100 µM (inactive).

Consider `C/C=C(/C)C(=O)O[C@@H]1CCN2CC[C@H](COC(=O)/C(=C/C)CO)C12` (stereo not given in full), for which, in the experiment with BT-549, the GI50 was > 100 µM (inactive).

As for `Cc1cc(C)c(P2C(=C(O[Si](C(C)C)(C(C)C)C(C)C)C(C)(C)C)C2(c2ccccc2)c2ccccc2)c(C)c1` (stereo not given), the GI50 in the experiment with BT-549 is > 100 µM (inactive).

`O=C1OC(C2Cc3ccc4c(c3C2=O)CCC4)c2ccccc21` (stereo not given): the GI50 in the experiment on BT-549 was 42.1 µM (inactive).

For the compound `CC(=O)Nc1nnc(S(=O)(=O)NC(=S)Nc2ccc(Cl)cc2)s1`, in the experiment with BT-549, the GI50 is > 100 µM (inactive).

Consider `CO[C@H]1[C@@H](O)[C@@H](O)O[C@@H](O[C@H]2CC[C@@]3(C)[C@H](CC[C@@H]4[C@@H]3[C@H](O)C[C@]3(C)[C@@H](C5=CC(=O)OC5)CC[C@]43O)C2)[C@@H]1O`, for which the GI50 with BT-549 was 0.151 µM (active).

As for `CC(C)(C)C(=O)O[C@H]1C=C[C@@H](O)[C@@H]2[C@H]1[C@@H]1C=C[C@H]2C1`, the GI50 with BT-549 is 3.87 µM (inactive).

In the case of `c1ccc2c(c1)c(N1CCCCC1)cc1nc3c(cc(N4CCCCC4)c4ccccc43)nc12`, the GI50 with BT-549 was > 100 µM (inactive).

The values above are taken from ChEMBL document CHEMBL1201862, “PubChem BioAssay data set” (2004).
